Test: xn = mol fraction of the nth substance listed

CCCC[N+](CCCC)(CCCC)CCCC.N#C[S-] + CCCOCC(C)O
electrical conductivity [S/m], 101 kPa
Settings | 248.15 K | 258.15 K | 268.15 K | 278.15 K | 288.15 K | 298.15 K | 308.15 K | 313.15 K
x1 = 0.01119 | 0.0011 | 0.00185 | 0.00285 | 0.00405 | 0.00541 | – | 0.00829 | 0.00901
x1 = 0.01571 | 0.00157 | 0.00271 | 0.00425 | 0.00618 | 0.00842 | 0.01082 | 0.01352 | 0.01485
x1 = 0.01893 | 0.0019 | 0.00331 | 0.00526 | 0.00773 | 0.01064 | 0.01386 | 0.01748 | 0.01934
x1 = 0.02277 | 0.00227 | 0.00401 | 0.00644 | 0.00956 | 0.01332 | 0.01758 | 0.02234 | 0.02493
x1 = 0.02903 | 0.00284 | 0.00511 | 0.00834 | 0.01257 | 0.01775 | 0.02385 | 0.03061 | 0.03428
x1 = 0.03808 | 0.00356 | 0.00652 | 0.01082 | 0.01658 | 0.02379 | 0.03253 | 0.04237 | 0.04779
x1 = 0.04326 | 0.0039 | 0.00723 | 0.01211 | 0.01864 | 0.02705 | 0.0372 | 0.04875 | 0.0548
x1 = 0.06196 | 0.00476 | 0.00908 | 0.01564 | 0.02482 | 0.03669 | 0.05153 | 0.06887 | 0.07879
x1 = 0.07662 | 0.00504 | 0.00979 | 0.01722 | 0.02776 | 0.04173 | 0.05942 | 0.0805 | 0.09266
x1 = 0.09291 | 0.005 | 0.00994 | 0.01782 | 0.02925 | 0.04479 | 0.06473 | 0.08902 | 0.1031
x1 = 0.1099 | 0.00469 | 0.00956 | 0.01751 | 0.02928 | 0.04564 | 0.06699 | 0.09343 | 0.109
x1 = 0.1312 | 0.00408 | 0.00857 | 0.01611 | 0.02768 | 0.04408 | 0.06606 | 0.09376 | 0.1103
x1 = 0.1458 | 0.0036 | 0.00773 | 0.01481 | 0.02593 | 0.0419 | 0.06371 | 0.09151 | 0.1083

CC(=O)[O-].CC[n+]1ccn(C)c1 + [Cl-].[NH4+]
101 kPa, x2 = 0
Settings | electrical conductivity [S/m] | viscosity [mPa·s]
308.15 K | 0.473 | 71.3
318.15 K | 0.76 | 44.2

CCCC[N+](C)(CCCC)CCCC.N#C[N-]C#N + CC[n+]1ccn(C)c1.N#C[N-]C#N
viscosity [mPa·s], 101 kPa
Settings | 303.15 K | 333.15 K | 343.15 K | 353.15 K
x2 = 0.2114 | 109.5 | – | 20.6 | 15.38
x2 = 0.3975 | – | 19.3 | – | 11.19
x2 = 0.6047 | 33 | – | – | –

CCCC[n+]1ccn(C)c1.N#C[N-]C#N + O
100 kPa, x1 = 0.6252
Settings | viscosity [mPa·s]
303 K | 15.03
308 K | 12.94
313 K | 11.27
318 K | 9.91
323 K | 8.77

CC(=O)[O-].CC[n+]1ccn(C)c1 + CCO
Settings | electrical conductivity [S/m] | viscosity [mPa·s]
278.15 K, 101 kPa, x2 = 0.201 | – | 264
278.15 K, 101 kPa, x2 = 0.9 | – | 3.396
288.15 K, 101 kPa, x2 = 0 | – | 284
288.15 K, 101 kPa, x2 = 0.1 | – | 206.6
288.15 K, 101 kPa, x2 = 0.8 | – | 5.15
293.15 K, 101.3 kPa, x2 = 0 | 0.243 | –
293.15 K, 101.3 kPa, x2 = 0.0733 | 0.247 | –
293.15 K, 101.3 kPa, x2 = 0.1229 | 0.269 | –
293.15 K, 101.3 kPa, x2 = 0.2965 | 0.433 | –
293.15 K, 101.3 kPa, x2 = 0.4286 | 0.63 | –
293.15 K, 101.3 kPa, x2 = 0.5373 | 0.991 | –
293.15 K, 101.3 kPa, x2 = 0.7309 | 1.447 | –
293.15 K, 101.3 kPa, x2 = 0.7625 | 1.539 | –
293.15 K, 101.3 kPa, x2 = 0.7754 | 1.615 | –
293.15 K, 101.3 kPa, x2 = 0.8081 | 1.329 | –
293.15 K, 101.3 kPa, x2 = 0.8897 | 0.71 | –
293.15 K, 101.3 kPa, x2 = 0.9163 | 0.505 | –
293.15 K, 101.3 kPa, x2 = 0.9299 | 0.404 | –
293.15 K, 101.3 kPa, x2 = 0.9383 | 0.335 | –
293.15 K, 101.3 kPa, x2 = 0.9494 | 0.252 | –
298.15 K, 101 kPa, x2 = 0.4002 | – | 31.8
298.15 K, 101 kPa, x2 = 0.5001 | – | 20.04
298.15 K, 101 kPa, x2 = 0.8666 | – | 2.67
308.15 K, 101 kPa, x2 = 0.2999 | – | 32.06
308.15 K, 101 kPa, x2 = 0.6 | – | 9.27
308.15 K, 101 kPa, x2 = 0.8 | – | 3.398
313.15 K, 101 kPa, x2 = 0.1059 | – | 43.5
313.15 K, 101 kPa, x2 = 0.2471 | – | 28.5
313.15 K, 101 kPa, x2 = 0.5572 | – | 9.24
313.15 K, 101 kPa, x2 = 0.7494 | – | 3.89
318.15 K, 101 kPa, x2 = 0.1 | – | 39.7
318.15 K, 101 kPa, x2 = 0.201 | – | 29.99
318.15 K, 101 kPa, x2 = 0.2999 | – | 22.19
318.15 K, 101 kPa, x2 = 0.4002 | – | 15.76
318.15 K, 101 kPa, x2 = 0.6 | – | 7.27
318.15 K, 101 kPa, x2 = 0.9 | – | 1.591
328.15 K, 101 kPa, x2 = 0 | – | 30.3
328.15 K, 101 kPa, x2 = 0.7 | – | 3.833
338.15 K, 101 kPa, x2 = 0 | – | 21.85
338.15 K, 101 kPa, x2 = 0.8 | – | 2.049
343.15 K, 101 kPa, x2 = 0.1059 | – | 14.96
343.15 K, 101 kPa, x2 = 0.3504 | – | 8.69
343.15 K, 101 kPa, x2 = 0.4165 | – | 7.31

CC[N+](CC)(CC)CC.[Cl-] + CC1(C)CC(O)CC(C)(C)N1[O] + O
Settings | electrical conductivity [S/m]
323.15 K, 100 kPa, frequency 0.001 MHz, x2 = 0, x1 = 0.2 | 4.1

CC[S+](CC)CCOCC[S+](CC)CC.O=S(=O)([N-]S(=O)(=O)C(F)(F)F)C(F)(F)F.O=S(=O)([N-]S(=O)(=O)C(F)(F)F)C(F)(F)F + CC[n+]1ccn(C)c1.N#C[N-]C#N + O=S(=O)([N-]S(=O)(=O)C(F)(F)F)C(F)(F)F.[Li+]
100 kPa, x1 = 0.1609, x2 = 0.7379
Settings | electrical conductivity [S/m]
298 K | 0.637
303 K | 0.742
313 K | 0.987
323 K | 1.28
333 K | 1.64
343 K | 2

CCCC[n+]1ccn(C)c1.N#C[N-]C#N + O=S(=O)([N-]S(=O)(=O)C(F)(F)F)C(F)(F)F.[Li+]
electrical conductivity [S/m], 101 kPa
Settings | x1 = 0.8953 | x1 = 0.9103 | x1 = 0.942 | x1 = 0.9606 | x1 = 0.9799 | x1 = 1
288.15 K | – | 0.381 | 0.469 | 0.538 | 0.595 | 0.596
298.15 K | 0.519 | 0.613 | 0.743 | 0.848 | 0.919 | 0.925
333.15 K | 1.67 | 1.88 | 2.17 | 2.46 | 2.56 | 2.77

CC[N+](CC)(CC)CC.[Cl-] + CC(=O)CCC(=O)O
101.3 kPa, x1 = 0.3333
Settings | viscosity [mPa·s]
298.15 K | 140
308.15 K | 83.8
318.15 K | 52.7
328.15 K | 33
338.15 K | 20.23

CC(=O)[O-].CC[n+]1ccn(C)c1 + CCS(=O)(=O)[O-].[NH4+]
101 kPa, x2 = 0
Settings | electrical conductivity [S/m] | viscosity [mPa·s]
303.15 K | 0.374 | 93.6
318.15 K | 0.76 | 44.2

CC(=O)[O-].CC[n+]1ccn(C)c1 + CS(C)=O
298.1 K, 100 kPa
Settings | electrical conductivity [S/m]
x1 = 0.108 | 0.94
x1 = 0.653 | 0.65

CCOS(=O)(=O)[O-].CC[N+]1(C)CCCC1 + O
101 kPa
Settings | viscosity [mPa·s]
313.15 K, x2 = 0 | 78
313.15 K, x2 = 0.105 | 65
318.15 K, x2 = 0 | 65
318.15 K, x2 = 0.7542 | 8.9
323.15 K, x2 = 0.7542 | 7.7
333.15 K, x2 = 0.9652 | 0.99
338.15 K, x2 = 0.6505 | 7.7
338.15 K, x2 = 0.9652 | 0.98
343.15 K, x2 = 0.6505 | 6.6
343.15 K, x2 = 0.9652 | 0.98

CCCC[n+]1ccn(C)c1.N#C[N-]C#N + OCC(O)CO + O
viscosity [mPa·s], 101 kPa
Settings | x2 = 0.00317, x3 = 0.9588 | x2 = 0.005245, x3 = 0.8687 | x2 = 0.006424, x3 = 0.955 | x2 = 0.009764, x3 = 0.9511 | x2 = 0.01072, x3 = 0.8605 | x2 = 0.0132, x3 = 0.9472 | x2 = 0.01645, x3 = 0.8519 | x2 = 0.02243, x3 = 0.8428
313.15 K | 1.38 | 1.68 | 1.46 | 1.53 | 1.72 | 1.59 | 1.78 | 1.81
333.15 K | 1.25 | 1.33 | 1.29 | 1.34 | 1.37 | 1.39 | 1.41 | 1.43
353.15 K | 1.03 | 1.15 | 1.03 | 1.07 | 1.17 | 1.08 | 1.22 | 1.34

CC(=O)[O-].CC[n+]1ccn(C)c1 + OC[C@@H](O)[C@@H](O)[C@H](O)[C@@H](O)CO
Settings | viscosity [mPa·s]
313.15 K, 100 kPa, x2 = 0 | 53.4

CCCn1cc[n+](C)c1.[Br-] + CC1COC(=O)O1
298 K, 101 kPa
Settings | electrical conductivity [S/m]
x2 = 0.1 | 0.04
x2 = 0.64 | 0.5
x2 = 0.67 | 0.52
x2 = 0.72 | 0.58

CCCC[N+](C)(CCCC)CCCC.[Cl-] + NC(N)=NCCC[C@H](N)C(=O)O + O
313.15 K, 101.3 kPa
Settings | viscosity [mPa·s]
x2 = 0, x1 = 0.0007203 | 0.67
x2 = 0, x1 = 0.00144 | 0.7

CCCC[P+](CCCC)(CCCC)CCCC.CS(=O)(=O)[O-] + c1c[nH]cn1
101.33 kPa, x1 = 0.5
Settings | viscosity [mPa·s]
313.05 K | 100
353.05 K | 21.6

From the CheMixHub ionic liquid set
